Test results from patent US6433014B1, “Compounds consisting in particular of effectors of the central nervous system receptors sensitive excitatory amino acids, preparation and biological applications” (Centre National de la Recherche Scientifique (C.N.R.S.), priority 1997, dated 2002).

Columns and labels:
mGluR1a = biological target: T1, mGluR1a (Rattus norvegicus, UniProt P23385); assay: accumulation of inositol phosphates (phospholipase C activation) in transfected HEK 293 cells expressing mGluR1a; assay type: cell-based
T1 construct: expressed in transfected cells; host or cells: HEK 293
Procedure: (§1) For this purpose, the activation of phospholipase C was measured (accumulation of inositol phosphates).
(§2) The HEK 293 cells are cultured in a Dulbecco's modified Eagle medium (DMEM, Gibco BRL) to which 10% of foetal calf serum has been added, and transfected by electroporation as previously described by Gomeza et al., Molecular Pharmacology, 1996, 50:923-930 (1996).
(§3) The electroporation is carried out in a total volume of 300 μl with 10 μg of supporting DNA, plasmid DNA containing mGluR1a (0.3 μg), mGluR2 (2 μg) or mGluR4a (5 μg) and 10^7 cells.
(§4) Determination of the accumulation of inositol phosphates (IP).
(§5) The determination of the accumulation of IP in transfected cells is carried out as described by Gomeza after labelling the cells for approximately 14 hours with [^3H]-myo-inositol (23.4 Ci/mol, NEN, France).
(§6) Stimulation is carried out for 30 minutes in a medium containing 10 mM LiCl in the presence of the drugs tested. The formation of the basic IP is determined after 30 minutes of incubation in the presence of 10 mM LiCl and pyruvate glutamate transaminase (1 U/ml) degrading the glutamate (Glu) and 2 mM of pyruvate in order to avoid the possible effects of Glu released by the cells. The results are expressed in the quantity of IP product with respect to the radioactivity present in the membranes.

mGluR4a = biological target: T2, mGluR4a (Rattus norvegicus, UniProt P31423); assay: accumulation of inositol phosphates in transfected HEK 293 cells expressing mGluR4a co-expressed with chimeric G protein; assay type: cell-based
T2 construct: expressed in transfected cells; host or cells: HEK 293
Procedure: as §1, §2, §3, §4, §5, §6

[1] = test system: ionotropic receptors (NMDA, AMPA and kainate receptors); assay: patch clamp recording of granule cells of the cerebellum; assay type: cell-based, mice; conditions: ACPT 1 mM; NMDA or kainate 100 μM
Procedure: Culture and recording of the granule cells of the cerebellum
The granule cells of the cerebellum are cultured from 7 day-old baby mice as described by Van-Vliet, B. J., J. of Neurochemistry, 1989, .52, 1229-1239.
Recording is carried out using the technique known as a “patch clamp” in the full cell configuration and the molecules are applied using a rapid application technique.
Initially, tests were carried out in order to check whether the ACPT's were capable of activating or exercising an antagonist effect vis-à-vis the ionotropic receptors. These tests have shown that none of the ACPT enantiomers induces a current when they are placed in contact with the granule cells of the cerebellum at a concentration of 1 mM.
In the same batches, currents are on the contrary seen to be induced by NMDA (100 μM) or kainate (100 μM, which concentration allows activation of both the AMPA and kainate receptors), as envisaged given the activation of the NMDA and non-NMDA receptors.

mGluR2 = biological target: T3, mGluR2 (Rattus norvegicus, UniProt P31421); assay: accumulation of inositol phosphates in transfected HEK 293 cells expressing mGluR2 co-expressed with chimeric G protein; assay type: cell-based
T3 construct: expressed in transfected cells; host or cells: HEK 293
Procedure: as §1, §2, §3
In order to allow activation of the phospholipase C by mGluR2 and mGluR4a, which effect is easier to measure than the inhibition of the production of cAMP, these receptors are co-expressed with chimeric G, Gqo5 and Gqi9 proteins, as described by Gomeza. The pharmacological profiles of these 2 receptors determined according to this method, have already been described as identical to those characterized by measuring the inhibition of the formation of cAMP.
as §4, §5, §6

T3 sequence (P31421 19-872): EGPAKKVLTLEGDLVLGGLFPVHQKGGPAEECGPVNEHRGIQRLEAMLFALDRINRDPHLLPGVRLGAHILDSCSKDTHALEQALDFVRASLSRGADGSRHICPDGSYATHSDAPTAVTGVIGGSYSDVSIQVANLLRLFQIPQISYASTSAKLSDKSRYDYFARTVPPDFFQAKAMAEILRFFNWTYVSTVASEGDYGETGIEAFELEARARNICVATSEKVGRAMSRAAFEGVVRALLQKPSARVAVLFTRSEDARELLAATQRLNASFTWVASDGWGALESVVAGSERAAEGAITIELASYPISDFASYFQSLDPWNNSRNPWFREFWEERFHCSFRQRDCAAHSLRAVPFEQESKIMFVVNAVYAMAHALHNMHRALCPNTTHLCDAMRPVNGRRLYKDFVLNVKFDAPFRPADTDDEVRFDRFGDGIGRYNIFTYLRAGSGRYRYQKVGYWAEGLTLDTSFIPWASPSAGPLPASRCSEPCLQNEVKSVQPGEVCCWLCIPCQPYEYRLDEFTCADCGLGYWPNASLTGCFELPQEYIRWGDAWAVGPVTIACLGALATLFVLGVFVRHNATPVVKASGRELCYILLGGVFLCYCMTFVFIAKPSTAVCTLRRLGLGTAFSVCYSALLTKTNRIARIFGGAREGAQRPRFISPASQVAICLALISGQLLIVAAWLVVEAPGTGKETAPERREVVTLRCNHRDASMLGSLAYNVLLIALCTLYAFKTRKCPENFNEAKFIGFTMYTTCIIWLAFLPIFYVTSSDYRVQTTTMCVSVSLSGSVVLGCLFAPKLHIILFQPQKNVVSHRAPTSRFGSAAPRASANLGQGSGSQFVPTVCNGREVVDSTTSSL
T1 sequence (P23385 19-1199): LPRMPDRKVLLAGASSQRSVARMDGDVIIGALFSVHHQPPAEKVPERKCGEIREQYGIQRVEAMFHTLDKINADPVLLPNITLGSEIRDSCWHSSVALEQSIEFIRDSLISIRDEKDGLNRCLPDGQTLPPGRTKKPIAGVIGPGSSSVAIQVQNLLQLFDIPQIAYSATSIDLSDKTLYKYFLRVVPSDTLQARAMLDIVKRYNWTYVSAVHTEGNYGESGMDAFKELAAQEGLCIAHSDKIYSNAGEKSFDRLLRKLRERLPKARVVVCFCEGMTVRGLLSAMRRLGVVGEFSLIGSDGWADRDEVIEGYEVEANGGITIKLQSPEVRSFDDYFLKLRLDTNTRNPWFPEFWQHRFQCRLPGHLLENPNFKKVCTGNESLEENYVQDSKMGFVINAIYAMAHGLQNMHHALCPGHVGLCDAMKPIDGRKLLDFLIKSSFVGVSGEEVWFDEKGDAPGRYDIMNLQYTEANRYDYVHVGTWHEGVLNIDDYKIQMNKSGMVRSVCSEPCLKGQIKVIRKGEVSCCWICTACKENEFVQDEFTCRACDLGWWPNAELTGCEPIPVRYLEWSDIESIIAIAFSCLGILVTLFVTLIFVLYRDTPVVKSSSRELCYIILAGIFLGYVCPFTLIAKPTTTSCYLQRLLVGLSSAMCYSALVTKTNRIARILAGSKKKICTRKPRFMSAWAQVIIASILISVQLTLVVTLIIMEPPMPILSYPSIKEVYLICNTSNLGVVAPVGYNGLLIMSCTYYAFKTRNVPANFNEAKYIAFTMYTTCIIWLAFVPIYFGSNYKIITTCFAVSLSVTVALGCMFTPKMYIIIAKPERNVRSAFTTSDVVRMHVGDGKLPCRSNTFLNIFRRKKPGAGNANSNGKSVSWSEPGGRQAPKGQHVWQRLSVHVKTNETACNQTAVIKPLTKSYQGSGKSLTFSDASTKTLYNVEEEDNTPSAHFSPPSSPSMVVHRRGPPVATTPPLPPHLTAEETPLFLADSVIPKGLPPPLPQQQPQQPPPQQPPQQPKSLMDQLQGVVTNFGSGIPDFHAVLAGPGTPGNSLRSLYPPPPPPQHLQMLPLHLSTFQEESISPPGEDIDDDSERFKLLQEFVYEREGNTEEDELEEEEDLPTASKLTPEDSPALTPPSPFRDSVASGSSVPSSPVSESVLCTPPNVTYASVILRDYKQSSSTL
T2 sequence (P31423 33-912): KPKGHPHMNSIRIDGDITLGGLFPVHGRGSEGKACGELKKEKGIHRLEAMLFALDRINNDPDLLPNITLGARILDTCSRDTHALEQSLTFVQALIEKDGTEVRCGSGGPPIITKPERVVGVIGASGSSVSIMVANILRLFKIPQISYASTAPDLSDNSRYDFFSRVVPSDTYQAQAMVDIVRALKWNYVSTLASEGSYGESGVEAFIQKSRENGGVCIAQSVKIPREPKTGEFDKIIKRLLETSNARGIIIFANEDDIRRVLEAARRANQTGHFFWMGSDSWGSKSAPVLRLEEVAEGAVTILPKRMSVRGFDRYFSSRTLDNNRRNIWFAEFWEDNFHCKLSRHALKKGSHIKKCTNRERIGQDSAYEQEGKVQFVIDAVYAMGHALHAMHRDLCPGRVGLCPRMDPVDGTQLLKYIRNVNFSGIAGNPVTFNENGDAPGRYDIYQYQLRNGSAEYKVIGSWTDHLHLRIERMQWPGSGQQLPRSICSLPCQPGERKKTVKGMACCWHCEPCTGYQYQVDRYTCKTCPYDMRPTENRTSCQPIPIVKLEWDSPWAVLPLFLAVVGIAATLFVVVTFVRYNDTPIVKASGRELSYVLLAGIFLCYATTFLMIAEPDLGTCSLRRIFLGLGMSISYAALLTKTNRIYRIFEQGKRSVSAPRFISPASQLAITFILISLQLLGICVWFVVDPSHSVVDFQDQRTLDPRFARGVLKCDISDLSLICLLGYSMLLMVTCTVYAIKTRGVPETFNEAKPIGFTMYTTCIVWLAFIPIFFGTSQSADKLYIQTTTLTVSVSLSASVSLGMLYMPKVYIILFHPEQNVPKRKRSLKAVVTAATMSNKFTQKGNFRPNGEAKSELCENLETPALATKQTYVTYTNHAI

- Kb (mGluR1a; HEK 293 cells, IP accumulation induced by Glu, Shild representation, read-out: mGluR1a KB (antagonist effect)): > 300 µM
- EC50 (mGluR1a; HEK 293 cells, IP accumulation, read-out: mGluR1a EC50 (agonist effect)): > 3000 µM
- Kb (mGluR4a; IP accumulation induced by Glu, Shild representation, read-out: mGluR4a KB (antagonist effect)): > 3000 µM
- EC50 (mGluR4a; IP accumulation, read-out: mGluR4a EC50 (agonist effect)): 40 ± 8 µM
- inhibition of the responses induced by Glu in cells expressing mGluR2, in words (mGluR2): inhibit the responses induced by Glu
- Kb (mGluR2; HEK 293 cells, IP accumulation induced by Glu, Shild representation, read-out: mGluR2 KB (antagonist effect)): > 300 µM
- EC50 (mGluR2; HEK 293 cells, IP accumulation, read-out: mGluR2 EC50 (agonist effect)): > 3000 µM
Compound: NC1(C(=O)O)CC(C(=O)O)C(C(=O)O)C1 (racemic) [(=)-ACPT-III, 1-amino-cyclopentane-1,3,4 tricarboxylic acid]
- inhibition of the formation of IP induced by Glu in cells expressing mGluR1a, in words (mGluR1a): inhibit the formation of the IP's induced by the Glu
- inhibition of responses induced by NMDA or kainate, in words [1]: No significant inhibition
